Activity calls are given as the source filed them. The calls are words filed in the database; no cut-off is given here.
Assays:
[1] = system: MCF7; test: Effect on Akt expression in human MCF7 cells by Western blot analysis; assay type: functional, cell-based
[2] = system: MDA-MB-231; test: Cell cycle arrest in human MDA-MB-231 cells assessed as downregulation of CDK4 expression by Western blot analysis; assay type: functional, cell-based
[3] = system: MDA-MB-231; test: Induction of apoptosis in human MDA-MB-231 cells assessed as increase in production of cleaved caspase-9 at 0.56 to 5 uM measured after 24 hrs by Western blot analysis; assay type: functional, cell-based; details: dose 0.56-5 µM
[4] = system: MCF7; test: Induction of apoptosis in human MCF-7 cells assessed as increase in Bax protein expression at 1.67 to 15 uM measured after 24 hrs by Western blot analysis; assay type: functional, cell-based; details: dose 1.67-15 µM
[5] = system: MDA-MB-231; test: Induction of mitochondrial apoptosis in human MDA-MB-231 cells assessed as chromatin shrinkage by Hoechst 33258 staining based fluorescence microscopic assay; assay type: functional, cell-based
[6] = system: MDA-MB-231; test: Induction of mitochondrial apoptosis in human MDA-MB-231 cells assessed as late apoptotic cells at 5 uM measured after 24 hrs by FITC -annexin V/PI double staining based flow cytometric analysis (reference value: 2.3%); assay type: functional
[7] = system: MDA-MB-231; test: Cell cycle arrest in human MDA-MB-231 cells assessed as accumulation of cells at S phase at 5 uM measured after 24 hrs by propidium iodide staining based flow cytometry (reference value: 27.6%); assay type: functional
[8] = system: MDA-MB-231; test: Induction of apoptosis in human MDA-MB-231 cells assessed as decrease in Bcl-2 level at 0.56 to 5 uM measured after 24 hrs by Western blot analysis; assay type: functional, cell-based; details: dose 0.56-5 µM
[9] = system: MCF7; test: Induction of apoptosis in human MCF-7 cells assessed as increase in production of cleaved caspase-3 at 1.67 to 15 uM measured after 24 hrs by Western blot analysis; assay type: functional, cell-based; details: dose 1.67-15 µM
[10] = system: MCF7; test: Cell cycle arrest in human MCF7 cells assessed as accumulation of cells at G2/M phase at 15 uM measured after 24 hrs by propidium iodide staining based flow cytometry (reference value: 31%); assay type: functional
[11] = system: MDA-MB-231; test: Induction of mitochondrial apoptosis in human MDA-MB-231 cells assessed as decrease in mitochondrial membrane potential levels at 5 uM measured after 24 hrs by flow cytometry; assay type: functional; design: scale not given: the % may be the effect or the level left
[12] = system: MDA-MB-231; test: Antitumour activity against human MDA-MB-231 cells xenografted in BALB/c nude mouse assessed as upregulation of Bax level by western blot; assay type: functional, cell-based
[13] = system: MDA-MB-231; test: Cell cycle arrest in human MDA-MB-231 cells assessed as accumulation of cells at G2/M phase at 5 uM measured after 24 hrs by propidium iodide staining based flow cytometry (reference value: 27.5%); assay type: functional
[14] = system: MCF7; test: Induction of mitochondrial apoptosis in human MCF7 cells assessed as early apoptotic cells at 15 uM measured after 24 hrs by FITC -annexin V/PI double staining based flow cytometric analysis (reference value: 2.4%); assay type: functional
[15] = system: MDA-MB-231; test: Cytotoxicity against human MDA-MB-231 cells measured by MTT assay; assay type: functional, cell-based
[16] = system: MDA-MB-231; test: Antitumour activity against human MDA-MB-231 cells xenografted in BALB/c nude mouse assessed as upregulation of cleaved caspase-3 level at 15 to 30 mg/kg, ip administered once for every other day for 20 days by Western blot analysis; assay type: functional, organism-based; details: dose 15-30 mg/kg, time 20.0 day
[17] = system: MCF7; test: Cell cycle arrest in human MCF-7 cells assessed as accumulation of cells at G0/G1 phase at 15 uM measured after 24 hrs by propidium iodide staining based flow cytometry (reference value: 51.7%); assay type: functional
[18] = system: MDA-MB-231; test: Induction of mitochondrial apoptosis in human MDA-MB-231 cells assessed as viable cells at 5 uM measured after 24 hrs by FITC -annexin V/PI double staining based flow cytometric analysis (Rvb =94.3%); assay type: functional; details: read-out: Activity
[19] = system: MCF7; test: Induction of mitochondrial apoptosis in human MCF-7 cells assessed as decrease in mitochondrial membrane potential levels at 5 uM measured after 24 hrs by flow cytometry; assay type: functional; design: scale not given: the % may be the effect or the level left
[20] = system: MCF7; test: Cell cycle arrest in human MCF-7 cells assessed as downregulation of CDK6 expression by Western blot analysis; assay type: functional, cell-based
[21] = system: MDA-MB-231; test: Cell cycle arrest in human MDA-MB-231 cells assessed as accumulation of cells at G0/G1 phase at 5 uM measured after 24 hrs by propidium iodide staining based flow cytometry (reference value: 44%); assay type: functional
[22] = system: MDA-MB-231; test: Induction of mitochondrial apoptosis in human MDA-MB-231 cells assessed as early apoptotic cells at 5 uM measured after 24 hrs by FITC -annexin V/PI double staining based flow cytometric analysis (reference value: 1.2%); assay type: functional
[23] = system: MDA-MB-231; test: Antitumour activity against human MDA-MB-231 cells xenografted in BALB/c nude mouse assessed as tumour growth inhibition at 15 mg/kg, ip administered once for every other day for 20 days relative to control; assay type: functional; details: MDA-MB-231, ip, 480 h, time 20 day, read-out: TGI
[24] = system: MDA-MB-231; test: Inhibition of PI3K p85 phosphorylation in human MDA-MB-231 cells by Western blot analysis; assay type: cell-based
[25] = system: MDA-MB-231; test: Induction of apoptosis in human MDA-MB-231 cells assessed as increase in Bax protein expression at 0.56 to 5 uM measured after 24 hrs by Western blot analysis; assay type: functional, cell-based; details: dose 0.56-5 µM
[26] = system: MCF7; test: Antiproliferative activity against human MCF-7 cells measured by MTT assay; assay type: functional, cell-based
[27] = system: MDA-MB-231; test: Antitumour activity against human MDA-MB-231 cells xenografted in BALB/c nude mouse assessed as downregulation of cyclin D3 level at 15 to 30 mg/kg, ip administered once for every other day for 20 days by Western blot analysis; assay type: functional, organism-based; details: dose 15-30 mg/kg, time 20.0 day
[28] = system: MCF7; test: Induction of mitochondrial apoptosis in human MCF7 cells assessed as late apoptotic cells at 15 uM measured after 24 hrs by FITC -annexin V/PI double staining based flow cytometric analysis (reference value: 1.1%); assay type: functional
[29] = system: MCF7; test: Inhibition of PI3K p85 phosphorylation in human MCF7 cells by Western blot analysis; assay type: cell-based
[30] = system: MCF7; test: Cytotoxicity against human MCF-7 cells measured by MTT assay; assay type: functional, cell-based
[31] = target: T1, Tyrosine-protein phosphatase non-receptor type 1 (Homo sapiens, UniProt P18031); test: Inhibition of PTP1B (unknown origin)
T1 sequence (P18031 whole entry): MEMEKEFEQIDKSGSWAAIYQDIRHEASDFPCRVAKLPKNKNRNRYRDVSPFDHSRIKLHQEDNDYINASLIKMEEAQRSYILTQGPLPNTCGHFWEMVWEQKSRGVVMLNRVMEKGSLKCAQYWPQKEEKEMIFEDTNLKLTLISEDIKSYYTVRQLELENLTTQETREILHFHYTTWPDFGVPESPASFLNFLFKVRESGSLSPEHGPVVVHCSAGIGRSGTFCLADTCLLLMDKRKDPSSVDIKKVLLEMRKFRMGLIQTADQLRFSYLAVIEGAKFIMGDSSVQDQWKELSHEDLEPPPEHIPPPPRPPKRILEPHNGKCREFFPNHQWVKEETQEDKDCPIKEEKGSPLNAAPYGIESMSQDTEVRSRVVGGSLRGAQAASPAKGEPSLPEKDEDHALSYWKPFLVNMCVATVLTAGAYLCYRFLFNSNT

[32] = system: MCF7; test: Cell cycle arrest in human MCF-7 cells assessed as downregulation of cyclin D3 expression by Western blot analysis; assay type: functional, cell-based
[33] = system: MCF7; test: Inhibition of PI3K in human MCF7 assessed as Akt phosphorylation by Western blot analysis

Which Activity [1] does the source give for `CCCC/C=C/CCCCCCCCCC1(O)CC(=O)c2c(O)c(C)c(O)c(C)c2O1` (stereo not drawn) here?
Its Activity is “inactive”.

What about the Activity [2] of the same compound?
Its Activity is “Dose-Dependent Effect”.

And the Activity [3]?
The Activity was “Dose-Dependent Effect”.

What about the Activity [4] of the same compound?
The Activity was “Dose-Dependent Effect”.

And the Activity [5]?
The Activity was “Active”.

And the Activity [6]?
The Activity was 7%.

And the Activity [7]?
The Activity was 21.3%.

And the Activity [8]?
Its Activity is “Dose-Dependent Effect”.

And the Activity [9]?
Its Activity is “Dose-Dependent Effect”.

And the Activity [10]?
Its Activity is 22.7%.

And the Activity [11]?
Its Activity is 62.2%.

And the Activity [12]?
The Activity was “Active”.

And the Activity [13]?
The Activity was 18.5%.

And the Activity [14]?
Its Activity is 7.8%.

What about the IC50 [15] of the same compound?
The IC50 was 6.79 µM.

And the Activity [16]?
Its Activity is “Active”.

And the Activity [17]?
The Activity was 66.8%.

What about the viability at 5 µM [18] of the same compound?
The viability at 5 µM was 82%.

What about the Activity [19] of the same compound?
The Activity was 68.7%.

And the Activity [20]?
Its Activity is “Dose-Dependent Effect”.

And the Activity [21]?
Its Activity is 62.4%.

And the Activity [22]?
The Activity was 4.8%.

And the inhibition in vivo at 15 mg/kg [23]?
Its inhibition in vivo at 15 mg/kg is 53.6%.

What about the inhibition [24] of the same compound?
Its inhibition is “Dose-Dependent Effect”.

And the Activity [25]?
The Activity was “Dose-Dependent Effect”.

And the IC50 [26]?
Its IC50 is 17.5 µM.

What about the Activity [27] of the same compound?
Its Activity is “Active”.

And the Activity [28]?
The Activity was 8.9%.

What about the inhibition [29] of the same compound?
Its inhibition is “Dose-Dependent Effect”.

And the IC50 [30]?
Its IC50 is 17.5 µM.

What about the IC50 [31] of the same compound?
The IC50 was 1.8 µM.

What about the Activity [32] of the same compound?
Its Activity is “Dose-Dependent Effect”.

What about the inhibition [33] of the same compound?
Its inhibition is “Dose-Dependent Effect”.
